Data set [1] concerns Merlin-negative (encoded by NF-2) mesothelioma cells. More on the design: method as in doi:10.1016/S0959-8049(12)72185-8. The following applies: preclinical studies; cited from earlier work.
The subject of another data set is mesothelioma. More on the design: method as in PMID 27733373. The settings on record: GSK2256098 monotherapy, phase I; cited from earlier work.
Data set [2] can be described thus: GSK2256098 pharmacokinetics, dry blood spot, Day 15. The following applies: human, oral; for Cmax: read-out: Cmax, Geometric mean (%CV); for Tmax: read-out: tmax, Median (range). In kind it is in vivo. On the procedure: (§1) Approximately 15 μL blood was then transferred from the “end-to-end” EDTA capillary tube onto the Whatman FTA DBS card.
Data set [3] can be described thus: GSK2256098 pharmacokinetics, whole blood, Day 15. In kind it is in vivo, human. The following applies: for Cmax: read-out: Cmax, Geometric mean (%CV); for Tmax: read-out: tmax, Median (range). On the procedure: as §1
Data set [4] can be described thus: Adverse events (CTCAE v4.0) in patients. The following applies: diarrhoea, lower respiratory tract infection, nausea, vomiting.
Description: (§2) AEs were assessed throughout the study using the National Cancer Institute Common Terminology Criteria for Adverse Events v4.0 guidelines.[13]
(§3) Haematology and clinical chemistry laboratory tests were performed at baseline, Days 1, 8, 15, 22, 29, and every 4 weeks thereafter. Electrocardiograms were performed at baseline, Days 1, 15, 22, and then every 8 weeks from Day 1.
Data set [5] concerns human carboxylesterases (eg, hCES1b, hCES1c, and hCES2). Also noted: method as in GSK data on file. The settings on record: in vitro investigation; ref GSK data on file; cited from earlier work.
For data set [6] the following is noted: human, in vivo.
Description: as §2, §3
For data set [7] the following is noted: human, in vivo. The source holds these as a separate data set.
Description: Blood samples for pharmacokinetic analysis were collected prior to morning dosing of GSK2256098 on Day 15, and at 1, 1.5, 2, 4, 6, 8 h after the morning dose of GSK2256098. Trametinib was administered immediately after the 1.5-hour pharmacokinetic sample was collected.
For PK analysis of trametinib, blood samples were taken via an indwelling cannula (or by direct venepuncture), collected into a di-potassium ethylenediaminetetraacetic acid (K2-EDTA) tube and immediately placed on water ice. Blood samples stored on wet ice were centrifuged within 1 h of collection at approximately 1500 g for 10 min at 4 °C. Supernatant plasma was transferred to a 3.6 mL Nunc tube and stored at 20 °C before shipment. Samples were shipped frozen on dry ice at agreed timepoints throughout the study to GSK Pharmaceuticals, Upper Merion, PA, USA, for analysis.
Plasma samples were analysed for trametinib using the validated analytical method based on liquid-liquid extraction, followed by high-performance liquid chromatography mass spectrometry (HPLC-MS/MS) analysis using a TurboIonSpray interface and multiple reaction monitoring. The lower limit of quantification (LLQ) for trametinib was 0.25 ng/mL using a 50-mL aliquot of human plasma with a higher limit of quantification (HLQ) of 250 ng/mL. Blood samples were analysed for GSK2256098 using a validated analytical method based on acetonitrile extraction from dried blood spots on the Whatman FTA DBS card, followed by HPLC/MS/MS analysis using a TurboIonSpray interface and multiple reaction monitoring. The LLQ for GSK2256098 was 10 ng/mL using a 3-mm diameter.
GSK2256098 whole-blood and dry blood spot concentration-time data as well as trametinib plasma concentration-time data were analysed by standard noncompartmental methods using Phoenix WinNonlin version 6.3. Calculations of all Pharmacokinetic parameters were based on doses of GSK2256098 and trametinib administered and actual sampling times from the respective dosing.
On the set-up of data set [8]: method as in PMID 22805291. The settings on record: Trametinib 2.0 mg monotherapy (n = 13), plasma; cited from earlier work.
The mark [9] stands for this setting: GSK2256098 250 mg (n = 6) with trametinib.
[10] abbreviates: GSK2256098 500 mg (n = 10) with trametinib.
[11] abbreviates: human, oral, GSK2256098 250 mg (n = 10) with trametinib, whole blood, Day 15.
Where [12] appears, read: human, oral, GSK2256098 500 mg (n = 21) with trametinib, whole blood, Day 15.

Where two headings read alike, the source gives them in different places.

On to `CONC(=O)c1ccccc1Nc1cc(Nc2cc(C)nn2C(C)C)ncc1Cl` [GSK2256098], for which the “activity in vitro in Merlin-negative versus Merlin-positive mesothelioma cells” value in [1] is “at least 20 times”. In the data set with mesothelioma, the “PFS of Merlin-negative versus Merlin-positive mesothelioma patients” value was “nearly twice”. In addition, the AUC – broadly, the area under the concentration-time curve, a measure of exposure – worked out at 4980 ng·h/mL in data set [2] (GSK2256098 250 mg (n = 6) with trametinib, read-out: AUC(0–τ), Geometric mean (%CV)) and 5470 ng·h/mL in data set [3] (human, oral, GSK2256098 250 mg (n = 10) with trametinib, whole blood, Day 15, read-out: AUC(0–τ), Geometric mean (%CV)). The Cmax (usually the peak of the concentration-time curve) in data set [2] (setting [9]) is 1230 ng/mL; in data set [2] (setting [10]), 2830 ng/mL; in data set [3] (setting [11]) it was 1400 ng/mL; in data set [3] (setting [12]), 2450 ng/mL. Further, the Tmax (as a rule, the time from dosing to the highest level) in [2] (setting [9]) was 2.8 h; in data set [2] (setting [10]) it was 2 h; in data set [3] (setting [11]), 2 h; in [3] (setting [12]), 2 h. The “median time to Cmax (tmax)” value in [3] (post-dose, across dose groups, with trametinib) is reported as about 2 h. Further, the “exposure of GSK2256098 when co-administered with trametinib” value in data set [3] (versus previous monotherapy study) is “not altered”. Further, in [4], the “relation of the most common serious AEs to GSK2256098” value was “none of these were considered related to GSK2256098”. The MTD in combination reads like this: (high GSK2256098/low trametinib MTD, GSK2256098 part) 500 mg BID; (low GSK2256098/high trametinib MTD, GSK2256098 part) 250 mg BID. In addition, the “effect on deacetylation of trametinib by human carboxylesterases” value in [5] is recorded as “inhibits deacetylation of trametinib”.
Consider `CC(=O)Nc1cccc(-n2c(=O)n(C3CC3)c(=O)c3c(Nc4ccc(I)cc4F)n(C)c(=O)c(C)c32)c1` [trametinib], for which, in [6], the “subjects with an SAE that could be attributed to trametinib” value came to 15%. Further, in [7], the “Trametinib exposure (Cmax and AUC) with GSK2256098 versus trametinib monotherapy” value is on record as 2- to 4 fold; the “median time to Cmax (tmax)” value lay within 1.5 to 2.5 h; the “tmax of trametinib with GSK2256098 co-administration” value is recorded as “slightly delayed”. In [8], the “Cmax, Geometric mean (%CV)” value is recorded as 22.2 (28) ng/mL and the “tmax, Median (range)” value is recorded as 1.75 (1.0–3.0) h. The MTD in combination (high GSK2256098/low trametinib MTD, trametinib part) is 0.375 mg QD. Where the note is “low GSK2256098/high trametinib MTD, trametinib part”, the MTD in combination worked out at 0.5 mg QD.
